Assay results taken from article PMC3502511, “Inhibition of the Prokaryotic Pentameric Ligand-Gated Ion Channel ELIC by Divalent Cations” (PLoS Biology, 2012).
“And” between values parts separate entries of the source, which are not always exact repeats. Identical values can stand only once. Like-named read-outs stand apart in the source and are kept apart here.

Columns and labels:
ELIC WT = molecular target: T1, ELIC WT (Dickeya chrysanthemi, UniProt P0C7B7, INS163G); assay: cell-based; format: cell-based, Erwinia chrysanthemi; details: for Slope: Schild plot slope; for Ki: Schild analysis, read-out: Ki app
T1 construct: expressed in transfected cells; host or cells: X. laevis oocytes (cRNA injection, pTLN vector)
Experimental: (§1) Constructs containing the gene of either the WT or mutant channels preceded by the signal sequence of the chicken α7nAchR were cloned into the pTLN vector for expression in X. laevis oocytes. After linearization of the plasmid DNA by MluI, capped complementary RNA was transcribed with the mMessage mMachine kit (Ambion) and purified with the RNeasy kit (Qiagen). For expression, 1–50 ng of RNA was injected into defolliculated oocytes. Two-electrode voltage clamp measurements were performed 1 d after injection at 20°C (OC-725B, Warner Instrument Corp.). Currents were recorded in bath solutions containing 10 mM HEPES (pH 7), 130 mM NaCl, and the indicated concentrations of cysteamine and divalent cations. In case of solutions containing Zn^2+, cysteamine was replaced by propylamine. The membrane potential in all dose–response measurements was set to −40 mV. As ELIC is permeable to divalent cations, we tested if endogenous calcium-activated chloride channels affected our measurements. To chelate intracellular calcium ions, the oocytes were incubated for 15 to 30 min in bath solutions lacking divalent ions but containing 10 µM BAPTA-AM.

ELIC D113A/D158A = molecular target: T2, ELIC D113A/D158A (Dickeya chrysanthemi, UniProt P0C7B7, D113A/D158A/INS163G); assay: cell-based; format: cell-based, Erwinia chrysanthemi; details: D113A/D158A; for Slope: Schild plot slope; for pA / effects on the agonist dose-response curves in the double mutant: agonist cysteamine
T2 construct: expressed in transfected cells; host or cells: X. laevis oocytes
Experimental: as §1

ELIC R91A = molecular target: T3, ELIC R91A (Dickeya chrysanthemi, UniProt P0C7B7, INS163G/R91A); assay: Two-electrode voltage clamp, ELIC R91A in oocytes; format: cell-based, Erwinia chrysanthemi; details: for Slope: Schild plot slope; for pA: agonist cysteamine
T3 construct: expressed in transfected cells; host or cells: X. laevis oocytes
Experimental: as §1

ELIC D158A = molecular target: T4, ELIC D158A (Dickeya chrysanthemi, UniProt P0C7B7, D158A/INS163G); assay: Two-electrode voltage clamp, ELIC D158A in oocytes; format: cell-based, Erwinia chrysanthemi
T4 construct: expressed in transfected cells; host or cells: X. laevis oocytes
Experimental: as §1

ELIC D113N = molecular target: T5, ELIC D113N (Dickeya chrysanthemi, UniProt P0C7B7, D113N/INS163G); assay: Two-electrode voltage clamp, ELIC D113N in oocytes; format: cell-based, Erwinia chrysanthemi
T5 construct: expressed in transfected cells; host or cells: X. laevis oocytes
Experimental: as §1

ELIC N251A = molecular target: T6, ELIC N251A (Dickeya chrysanthemi, UniProt P0C7B7, N250A); assay: Two-electrode voltage clamp, ELIC N251A in oocytes; format: cell-based, Erwinia chrysanthemi
T6 construct: expressed in transfected cells; host or cells: X. laevis oocytes
Experimental: as §1

ELIC E150A = molecular target: T7, ELIC E150A (Dickeya chrysanthemi, UniProt P0C7B7, E150A/INS163G); assay: Two-electrode voltage clamp, ELIC E150A in oocytes; format: cell-based, Erwinia chrysanthemi
T7 construct: expressed in transfected cells; host or cells: X. laevis oocytes
Experimental: as §1

ELIC = molecular target: T8, ELIC (Dickeya chrysanthemi, UniProt P0C7B7, INS163G); details: high Ca^2+ concentration; cited from earlier work
T8 construct: expressed in transfected cells; host or cells: HEK 293 cells (ATCC CRL-1573), pcDNA3

ELIC D113A = molecular target: T9, ELIC D113A (Dickeya chrysanthemi, UniProt P0C7B7, D113A/INS163G); assay: Two-electrode voltage clamp, ELIC D113A in oocytes; format: cell-based, Erwinia chrysanthemi
T9 construct: expressed in transfected cells; host or cells: X. laevis oocytes
Experimental: as §1

ELIC D86A = molecular target: T10, ELIC D86A (Dickeya chrysanthemi, UniProt P0C7B7, D86A/INS163G); assay: Two-electrode voltage clamp, ELIC D86A in oocytes; format: cell-based, Erwinia chrysanthemi
T10 construct: expressed in transfected cells; host or cells: X. laevis oocytes
Experimental: as §1

ELIC S84A = molecular target: T11, ELIC S84A (Dickeya chrysanthemi, UniProt P0C7B7, INS163G/S84A); assay: Two-electrode voltage clamp, ELIC S84A in oocytes; format: cell-based, Erwinia chrysanthemi; details: S84A
T11 construct: expressed in transfected cells; host or cells: X. laevis oocytes
Experimental: as §1

ELIC D158N = molecular target: T12, ELIC D158N (Dickeya chrysanthemi, UniProt P0C7B7, D158N/INS163G); assay: Two-electrode voltage clamp, ELIC D158N in oocytes; format: cell-based, Erwinia chrysanthemi
T12 construct: expressed in transfected cells; host or cells: X. laevis oocytes
Experimental: as §1

ELIC E150Q = molecular target: T13, ELIC E150Q (Dickeya chrysanthemi, UniProt P0C7B7, E150Q/INS163G); assay: Two-electrode voltage clamp, ELIC E150Q in oocytes; format: cell-based, Erwinia chrysanthemi
T13 construct: expressed in transfected cells; host or cells: X. laevis oocytes
Experimental: as §1

[1] = WT, Schild plot x-intercept (log of mM), agonist cysteamine, −40 mV
[2] = Schild analysis, read-out: Ki app

With CC(=O)OCC[N+](C)(C)C [ACh, acetylcholine] the pA (ELIC WT; WT/1 mM Ca^2+ present, agonist cysteamine) was 0.35±0.01, the Slope (ELIC WT; WT/1 mM Ca^2+) was 1.1±0.01 and the pA (ELIC WT; WT/.25 mM Ca^2+ present, agonist cysteamine) was 0.06±0.06. It also gave a Slope (ELIC WT; WT/.25 mM Ca^2+) of 0.9±0.1, a pA (ELIC WT; WT/.5 mM Ca^2+ present, agonist cysteamine) of 0.11±0.09 and a Slope (ELIC WT; WT/.5 mM Ca^2+) of 0.9±0.01. The Slope (ELIC WT; WT, agonist cysteamine) was 1.0±0.1, the Slope (ELIC WT; WT, agonist cysteamine, listed as acetylcholine) was “unity” and the pA (ELIC WT; [1]) was 0.21±0.06. The Slope (ELIC D113A/D158A) was 0.8±0.1, the pA (ELIC D113A/D158A) was 0.32±0.06 and the “increase in the Schild affinity in the mutant R91A” value (ELIC R91A; R91A versus WT) was 10 fold. For the same compound, the Slope (ELIC R91A; R91A) was 0.7±0.1 and the pA (ELIC R91A; R91A) was −0.77±0.05.

For [Ba+2] [Ba^2+, barium], the Ki (ELIC WT; WT, agonist cysteamine) was 850 µM, the Slope (ELIC WT; WT, agonist cysteamine) was 1.1±0.03 and the pA (ELIC WT; [1]) was −0.07±0.01. The Ki (ELIC D113A/D158A; [2]) was 6500 µM, the Slope (ELIC D113A/D158A) was 0.6±0.02 and the “effects on the agonist dose-response curves in the double mutant” value (ELIC D113A/D158A) was “virtually abolishes”. The pA (ELIC D113A/D158A) was 0.81±0.02.

In the case of [Ca+2] [Ca^2+, calcium], the Ki (ELIC D158A; [2]) is reported as 5400 µM, the Slope (ELIC D158A; Schild plot slope) is reported as 1.2±0.1 and the pA (ELIC D158A; agonist cysteamine) is reported as 0.74±0.01. It also gave a Ki (ELIC D113N; [2]) of 950 µM, a Slope (ELIC D113N; Schild plot slope) of 1.0±0.01 and a pA (ELIC D113N; agonist cysteamine) of −0.02±0.08. It also gave a Ki (ELIC N251A; [2]) of 530 µM, a Slope (ELIC N251A; Schild plot slope) of 0.9±0.2 and a pA (ELIC N251A; agonist cysteamine) of −0.27±0.19. The Ki (ELIC E150A; [2]) was 1700 µM, the Slope (ELIC E150A; Schild plot slope) was 1.0±0.2 and the pA (ELIC E150A; agonist cysteamine) was 0.23±0.12. For the same compound, the “reduction of maximum agonist response” value (ELIC WT; 5 mM Ca^2+, saturating cysteamine, −40 mV) was 55%, the pA (ELIC WT; WT/1 mM ACh present, agonist cysteamine) was −0.65±0.01 and the Ki (ELIC WT; WT/1 mM ACh) was 220 µM. The Slope (ELIC WT; WT/1 mM ACh) was 0.9±0.02, the pA (ELIC WT; WT/BAPTA (BAPTA-AM-treated oocytes), agonist cysteamine) was −0.69±0.11 and the Ki (ELIC WT; WT/BAPTA) was 200 µM. For the same compound, the Slope (ELIC WT; WT/BAPTA) was 1.0±0.3, the Ki (ELIC WT; WT, agonist cysteamine) was 260 µM and the Slope (ELIC WT; WT, agonist cysteamine) was 0.8 and 0.8±0.05. The pA (ELIC WT; [1]) was −0.57±0.03, the IC50 (ELIC WT; WT, maximum cysteamine response, read-out: IC50 of decline of maximum current response (Langmuir equation)) was 6000 µM and the “decrease in the agonist maximum response” value (ELIC WT; at 6 mM calcium, channel block subtracted) was “about 50%”. The “effects on the agonist dose-response curves in the double mutant” value (ELIC D113A/D158A) was “virtually abolishes”, the “maximum decrease of single channel currents” value (ELIC) was “about 50%” and the Ki (ELIC R91A; R91A, Schild analysis, read-out: Ki app) was 210 µM. It also gave a Slope (ELIC R91A; R91A) of 0.7±0.1, a pA (ELIC R91A; R91A) of −0.69±0.03 and a Ki (ELIC D113A; [2]) of 4900 µM. The Slope (ELIC D113A; Schild plot slope) was 1.0±0.3, the pA (ELIC D113A; agonist cysteamine) was 0.69±0.04 and the Ki (ELIC D86A; [2]) was 250 µM. The Slope (ELIC D86A; Schild plot slope) was 0.8±0.1, the pA (ELIC D86A; agonist cysteamine) was −0.60±0.11 and the Ki (ELIC S84A; [2]) was 150 µM. The Slope (ELIC S84A; Schild plot slope) was 0.6±0.2, the pA (ELIC S84A; agonist cysteamine) was −0.83±0.14 and the Ki (ELIC D158N; [2]) was 3200 µM. The Slope (ELIC D158N; Schild plot slope) was 0.5±0.2, the pA (ELIC D158N; agonist cysteamine) was 0.50±0.17 and the Ki (ELIC E150Q; [2]) was 1200 µM. The Slope (ELIC E150Q; Schild plot slope) was 0.9±0.3 and the pA (ELIC E150Q; agonist cysteamine) was 0.09±0.20.

[Mg+2] [Mg^2+] gave a Ki (ELIC WT; WT, agonist cysteamine) of 430 µM, a Slope (ELIC WT; WT, agonist cysteamine) of 0.9±0.01 and a pA (ELIC WT; [1]) of −0.36±0.02.
